Assay results taken from PMC13586308, “Cell type–selective targeting by heterobifunctional protein binders via in-cell enrichment” (Nature Communications, 2026).
Read-outs that look alike come from different tables or passages of the source.

How the values were obtained:
[1] = molecular target: T1, FKBP12 (Homo sapiens, UniProt P62942); test: competitive fluorescence polarization assay, binding to FKBP12; details: competitive FP assay
[2] = molecular target: T2, BRD4^BD1 (Homo sapiens, UniProt O60885); test: competitive fluorescence polarization assay, BRD4 BD1 -/+ presenter protein; format: binding; details: for α BRD4^BD1 (binding cooperativity factor): ratio of binding in absence or presence of FKBP12
T2 construct: to the isolated BD1 and BD2 domains of BRD2, BRD3 and BRD4

[3] = molecular target: T3, BRD4^BD2 (Homo sapiens, UniProt O60885); test: competitive fluorescence polarization assay, BRD4 BD2 -/+ presenter protein; format: binding; details: for α BRD4^BD2 (binding cooperativity factor): ratio of binding in absence or presence of FKBP12
T3 construct: to the isolated BD1 and BD2 domains of BRD2, BRD3 and BRD4

[4] = molecular target: T1, FKBP12; test: NanoBRET FKBP12 in intact HEK293 cells; format: cell-based
[5] = molecular target: T4, BRD4 (Homo sapiens, UniProt O60885); test: NanoBRET BRD4, transient BRD4-NanoLuc in HEK293T cells; format: cell-based; details: intact HEK293 cells
T4 construct: full-length BRD4 fused to NanoLuc at N terminus; expressed in transfected cells; host or cells: HEK293T
Experimental: The NanoBRET assay was performed as described previously[26],[39]. To study BRD4 engagement, we employed two models: cells stably expressing BRD4-NanoLuc and cells with transient BRD4-NanoLuc expression. For stable cell lines, the coding sequence of human BRD4 (Isoform B) was fused in-frame to NanoLuc luciferase under the control of the human ubiquitin C (UbC) promoter, with left and right homology arms targeting the AAVS1 locus in intron 1 of the PPP1R12C gene to facilitate genomic integration. PC3 prostate cancer cells were transfected with this construct and vectors expressing Cas9 and an sgRNA targeting the AAVS1 locus using Lipofectamine 3000 (Invitrogen). Successful integrands were selected with blasticidin. Expression of the fusion protein was confirmed by western blot. For transient experiments, full-length BRD4 fused to NanoLuc at N terminus, was cloned into an expression plasmid and transfected into HEK293T cells using FuGENE HD (Promega, E2312), with protein expression allowed for 20 h. Serially diluted inhibitors and BRD Tracer-02 (Promega, TracerDB ID: T000022) at the Tracer KD concentration (from TracerDB)[40] were dispensed into white 384-well plates (Greiner 781207) using an ECHO 550 acoustic dispenser (Labcyte). The cells were trypsinized, resuspended in Opti-MEM without phenol red (Life Technologies), and seeded at 2 × 10^5 cells/mL. After equilibration for 2 h at 37 °C/5% CO₂ following compound treatment, the NanoBRET® NanoGlo Substrate + Extracellular NanoLuc® Inhibitor (Promega, N2162) was added according to the manufacturer’s protocol, and filtered luminescence was measured on a PHERAstar plate reader (BMG Labtech) using a donor (450 nm BP) and acceptor (610 nm LP) filter pair. Competitive displacement data were analyzed using GraphPad Prism 9 with a normalized 3-parameter curve fit: Y = 100/(1 + 10^(X − log IC₅₀)). For BRET measurements after FKBP12 knockdown in stably expressing BRD4 Nano-Luc reporter cell line, 10 nL/per well of the FKBP12 PROTAC was pipetted to each well using Labcyte to achieve the final concentration of 200 nM and the plated cells were incubated over-night at 37 °C and 5% CO2. BRET measurements were performed as outlined above.

[6] = absence of FKBP12, 2 nM JQ1-FL tracer, read-out: Binding to BRD4^BD1 - FKBP12 Kd
[7] = presence of 15 µM FKBP12, read-out: Binding to BRD4^BD1 + FKBP12 Kd (converted)
[8] = absence of FKBP12, 2 nM JQ1-FL tracer, read-out: Binding to BRD4^BD2 - FKBP12 Kd
[9] = presence of 15 µM FKBP12, read-out: Binding to BRD4^BD2 + FKBP12 Kd (converted)

T1 sequence (P62942 whole entry): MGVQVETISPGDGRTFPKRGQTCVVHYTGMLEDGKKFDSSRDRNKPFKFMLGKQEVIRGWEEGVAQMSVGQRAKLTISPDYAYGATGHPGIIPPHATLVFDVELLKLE

Row | Structure (SMILES) | Kd [1] | Kd [2, 6] | Kd [2, 7] | α BRD4^BD1 (binding cooperativity factor) [2] | Kd [3, 8] | Kd [3, 9] | α BRD4^BD2 (binding cooperativity factor) [3] | IC50 [4] | IC50 [5] | nanoBRET BRD4 IC50 [5]
1 | Cc1sc2c(c1C)C(c1ccc(Cl)cc1)=NC(CC(=O)N1CC(CN3CCC(Cn4cc(C5CN(Cc6ccccn6)C(=O)C6CCCC5N6S(=O)(=O)c5cc(Cl)cc(Cl)c5)nn4)CC3)C1)c1nnc(C)n1-2 (stereo not drawn) [a12c] | 0.0018 µM | 0.39 ± 0.05 µM | 0.23 ± 0.02 µM | 1.7 | 0.8 ± 0.1 µM | 0.7 ± 0.09 µM | 1.1 | 0.28 µM | 0.748 µM | –
2 | Cc1sc2c(c1C)C(c1ccc(Cl)cc1)=NC(CC(=O)N1CC(CN3CCC(n4cc(C5CN(Cc6ccccn6)C(=O)C6CCCC5N6S(=O)(=O)c5cc(Cl)cc(Cl)c5)nn4)CC3)C1)c1nnc(C)n1-2 (stereo not drawn) [a11c] | 0.0007 µM | – | 0.19 ± 0.03 µM | 5.3 | – | 0.45 ± 0.07 µM | 4.7 | 0.218 µM | 1.23 µM | –
3 | Cc1sc2c(c1C)C(c1ccc(Cl)cc1)=NC(CC(=O)N1CC(CN3CCC(Cn4cc(COCC5CN(Cc6ccccn6)C(=O)C6CCCC5N6S(=O)(=O)c5cc(Cl)cc(Cl)c5)nn4)CC3)C1)c1nnc(C)n1-2 (stereo not drawn) [a12d] | 0.0023 µM | 0.25 ± 0.04 µM | 0.04 ± 0.01 µM | 6.3 | – | 0.59 ± 0.07 µM | 1.9 | 0.406 µM | 0.514 µM | –
4 | Cc1sc2c(c1C)C(c1ccc(Cl)cc1)=NC(CC(=O)NCCOCCOCCn1cc(C3CN(Cc4ccccn4)C(=O)C4CCCC3N4S(=O)(=O)c3cc(Cl)cc(Cl)c3)nn1)c1nnc(C)n1-2 (stereo not drawn) [a2c] | 0.0006 µM | 0.44 ± 0.07 µM | 0.25 ± 0.04 µM | 1.8 | 0.51 ± 0.11 µM | – | 0.5 | 0.017 µM | 0.62 µM | –
5 | Cc1sc2c(c1C)C(c1ccc(Cl)cc1)=NC(CC(=O)N1CCN(CCn3cc(COCC4CN(Cc5ccccn5)C(=O)C5CCCC4N5S(=O)(=O)c4cc(Cl)cc(Cl)c4)nn3)CC1)c1nnc(C)n1-2 (stereo not drawn) [a4d] | 0.0011 µM | 0.5 ± 0.06 µM | 0.38 ± 0.05 µM | 1.3 | – | – | 1 | 0.089 µM | – | none
6 | Cc1sc2c(c1C)C(c1ccc(Cl)cc1)=NC(CC(=O)N1CCN(CCCn3cc(COCC4CN(Cc5ccccn5)C(=O)C5CCCC4N5S(=O)(=O)c4cc(Cl)cc(Cl)c4)nn3)CC1)c1nnc(C)n1-2 (stereo not drawn) [a5d] | 0.0012 µM | 0.74 ± 0.1 µM | 0.3 ± 0.05 µM | 2.5 | – | 0.6 ± 0.1 µM | 1.8 | 0.093 µM | 1.08 µM | –
7 | Cc1sc2c(c1C)C(c1ccc(Cl)cc1)=NC(CC(=O)NCCOCCn1cc(COC(C)C3CN(Cc4ccccn4)C(=O)C4CCCC3N4S(=O)(=O)c3cc(Cl)cc(Cl)c3)nn1)c1nnc(C)n1-2 (stereo not drawn) [a1f] | 0.0016 µM | 0.18 ± 0.02 µM | 0.14 ± 0.014 µM | 1.3 | 0.05 ± 0.014 µM | 0.23 ± 0.03 µM | 0.2 | 0.024 µM | 0.56 µM | –
8 | Cc1sc2c(c1C)C(c1ccc(Cl)cc1)=NC(CC(=O)N1CC(CN3CCC(n4cc(COCC5CN(Cc6ccccn6)C(=O)C6CCCC5N6S(=O)(=O)c5cc(Cl)cc(Cl)c5)nn4)CC3)C1)c1nnc(C)n1-2 (stereo not drawn) [a11d] | 0.0008 µM | 0.48 ± 0.07 µM | 0.04 ± 0.01 µM | 12 | – | 0.7 ± 0.1 µM | 1.8 | 0.165 µM | 0.687 µM | –
9 | Cc1sc2c(c1C)C(c1ccc(Cl)cc1)=NC(CC(=O)NCCOCCn1cc(C3CN(Cc4ccccn4)C(=O)C4CCCC3N4S(=O)(=O)c3cc(Cl)cc(Cl)c3)nn1)c1nnc(C)n1-2 (stereo not drawn) [a1c] | 0.001 µM | – | – | 0.3 | 0.59 ± 0.11 µM | – | 0.4 | 0.022 µM | 0.94 µM | –
10 | Cc1sc2c(c1C)C(c1ccc(Cl)cc1)=NC(CC(=O)N1CCC(N3CCC(n4cc(COCC5CN(Cc6ccccn6)C(=O)C6CCCC5N6S(=O)(=O)c5cc(Cl)cc(Cl)c5)nn4)CC3)CC1)c1nnc(C)n1-2 (stereo not drawn) [a9d] | 0.0017 µM | 0.34 ± 0.04 µM | 0.14 ± 0.01 µM | 2.4 | 0.5 ± 0.09 µM | 0.45 ± 0.07 µM | 1.1 | 0.169 µM | 0.364 µM | –
11 | Cc1sc2c(c1C)C(c1ccc(C#CCNC(=O)COCCn3cc(COCC4CN(Cc5ccccn5)C(=O)C5CCCC4N5S(=O)(=O)c4cc(Cl)cc(Cl)c4)nn3)cc1)=NC(CC(=O)OC(C)(C)C)c1nnc(C)n1-2 (stereo not drawn) [b3d] | 0.001 µM | 0.068 ± 0.009 µM | 0.2 ± 0.03 µM | 0.3 | 0.11 ± 0.03 µM | – | 0.1 | 0.015 µM | 0.266 µM | –
12 | Cc1sc2c(c1C)C(c1ccc(Cl)cc1)=NC(CC(=O)N1CCC(N3CCC(Cn4cc(COCC5CN(Cc6ccccn6)C(=O)C6CCCC5N6S(=O)(=O)c5cc(Cl)cc(Cl)c5)nn4)CC3)CC1)c1nnc(C)n1-2 (stereo not drawn) [a10d] | 0.0016 µM | 0.14 ± 0.03 µM | 0.1 ± 0.03 µM | 1.4 | 0.17 ± 0.03 µM | 0.08 ± 0.02 µM | 2.1 | 0.241 µM | – | none
13 | Cc1sc2c(c1C)C(c1ccc(Cl)cc1)=NC(CC(=O)N1CCC(CN3CCC(Cn4cc(COCC5CN(Cc6ccccn6)C(=O)C6CCCC5N6S(=O)(=O)c5cc(Cl)cc(Cl)c5)nn4)CC3)CC1)c1nnc(C)n1-2 (stereo not drawn) [a8d] | 0.0018 µM | 0.16 ± 0.03 µM | 0.084 ± 0.016 µM | 1.9 | 0.13 ± 0.03 µM | 0.12 ± 0.03 µM | 1 | 0.228 µM | 0.357 µM | –
14 | C=CC1CN(Cc2ccccn2)C(=O)C2CCCC1N2S(=O)(=O)c1ccc(-c2cn(CCOCCNC(=O)CC3N=C(c4ccc(Cl)cc4)c4c(sc(C)c4C)-n4c(C)nnc43)nn2)c(Cl)c1 (stereo not drawn) [a1h] | 0.05 µM | 0.1 ± 0.018 µM | 1.7 ± 0.2 µM | – | 0.052 ± 0.013 µM | 1.1 ± 0.2 µM | – | 0.53 µM | 0.27 µM | –
15 | C=CC1CN(Cc2ccccn2)C(=O)C2CCCC1N2S(=O)(=O)c1cc(Cl)cc(-c2cn(CCOCCOCCNC(=O)CC3N=C(c4ccc(Cl)cc4)c4c(sc(C)c4C)-n4c(C)nnc43)nn2)c1 (stereo not drawn) [a2g] | 0.076 µM | – | – | 0.4 | 0.58 ± 0.09 µM | – | 0.4 | – | 3.07 µM | –
16 | Cc1sc2c(c1C)C(c1ccc(Cl)cc1)=NC(CC(=O)NCCOCCn1cc(COCC3CN(CC(=O)N4CCC(C)CC4)C(=O)C4CCCC3N4S(=O)(=O)c3cc(Cl)cc(Cl)c3)nn1)c1nnc(C)n1-2 (stereo not drawn) [a1dk] | 0.00047 µM | 0.52 ± 0.09 µM | 0.2 ± 0.04 µM | 2.6 | 0.32 ± 0.06 µM | 0.8 ± 0.1 µM | 0.4 | 0.0091 µM | 1.19 µM | –
17 | Cc1sc2c(c1C)C(c1ccc(Cl)cc1)=NC(CC(=O)N1CCC(N3CCC(n4cc(C5CN(Cc6ccccn6)C(=O)C6CCCC5N6S(=O)(=O)c5cc(Cl)cc(Cl)c5)nn4)CC3)CC1)c1nnc(C)n1-2 (stereo not drawn) [a9c] | 0.0022 µM | 0.28 ± 0.04 µM | 0.18 ± 0.02 µM | 1.6 | 0.31 ± 0.04 µM | 0.65 ± 0.09 µM | 0.5 | 0.107 µM | 0.155 µM | –
18 | Cc1sc2c(c1C)C(c1ccc(Cl)cc1)=NC(CC(=O)N1CCC(CN3CCC(n4cc(C5CN(Cc6ccccn6)C(=O)C6CCCC5N6S(=O)(=O)c5cc(Cl)cc(Cl)c5)nn4)CC3)CC1)c1nnc(C)n1-2 (stereo not drawn) [a7c] | 0.0035 µM | 0.52 ± 0.08 µM | 0.18 ± 0.03 µM | 2.9 | 0.7 ± 0.1 µM | 0.9 ± 0.2 µM | 0.8 | 0.138 µM | 0.665 µM | –
